From PubChem BioAssay AID256 (DTP/NCI, 2004)
Toxic doses and inconclusive results are not listed. The calls were made as follows: active = survival T/C of 150% or more; inactive = T/C below 125% in these data.

Tested on: CD2F1 mice, L1210 leukemia ip, survival T/C
Assay: NCI In Vivo Anticancer Drug Screen. Data for tumor model L1210 Leukemia (intraperitoneal) in CD2F1 (CDF1) mice
Conditions: higher = longer survival
Procedure, shortened: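 Mice carrying a transplanted tumor received test compound or vehicle alone. The value is the measurement in the treated group divided by that in the vehicle-treated control group.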

[1] = endpoint: mean survival time, dose: 12.5 mg/kg/injection, schedule: Q01DX009 (ip), vehicle: other
[2] = endpoint: mean survival time, dose: 25.0 mg/kg/injection, schedule: Q01DX009 (ip), vehicle: other
[3] = endpoint: mean survival time, dose: 50.0 mg/kg/injection, schedule: Q01DX009 (ip), vehicle: other
[4] = endpoint: mean survival time, dose: 100.0 mg/kg/injection, schedule: Q01DX009 (ip), vehicle: other
[5] = endpoint: mean survival time, dose: 200.0 mg/kg/injection, schedule: Q01DX009 (ip), vehicle: other
[6] = endpoint: mean survival time, dose: 100.0 mg/kg/injection, schedule: Q01DX009 (ip), vehicle: saline with Tween-80
[7] = endpoint: mean survival time, dose: 200.0 mg/kg/injection, schedule: Q01DX009 (ip), vehicle: saline with Tween-80
[8] = endpoint: mean survival time, dose: 400.0 mg/kg/injection, schedule: Q01DX009 (ip), vehicle: saline with Tween-80
[9] = endpoint: mean survival time, dose: 50.0 mg/kg/injection, schedule: Q01DX009 (ip), vehicle: saline with Tween-80
[10] = endpoint: mean survival time, dose: 75.0 mg/kg/injection, schedule: Q01DX001 (ip), vehicle: other
[11] = endpoint: mean survival time, dose: 100.0 mg/kg/injection, schedule: Q01DX001 (ip), vehicle: saline
[12] = endpoint: mean survival time, dose: 150.0 mg/kg/injection, schedule: Q01DX001 (ip), vehicle: other
[13] = endpoint: mean survival time, dose: 12.5 mg/kg/injection, schedule: Q01DX001 (ip), vehicle: saline with Tween-80
[14] = endpoint: mean survival time, dose: 25.0 mg/kg/injection, schedule: Q01DX001 (ip), vehicle: saline with Tween-80
[15] = endpoint: mean survival time, dose: 50.0 mg/kg/injection, schedule: Q04DX003 (ip), vehicle: saline
[16] = endpoint: mean survival time, dose: 100.0 mg/kg/injection, schedule: Q04DX003 (ip), vehicle: Klucel (hydroxypropylcellulose) (HPC)
[17] = endpoint: mean survival time, dose: 200.0 mg/kg/injection, schedule: Q04DX003 (ip), vehicle: Klucel (hydroxypropylcellulose) (HPC)
[18] = endpoint: mean survival time, dose: 400.0 mg/kg/injection, schedule: Q04DX003 (ip), vehicle: Klucel (hydroxypropylcellulose) (HPC)
[19] = endpoint: mean survival time, dose: 200.0 mg/kg/injection, schedule: Q01DX001 (ip), vehicle: saline
[20] = endpoint: mean survival time, dose: 400.0 mg/kg/injection, schedule: Q01DX001 (ip), vehicle: saline
[21] = endpoint: mean survival time, dose: 100.0 mg/kg/injection, schedule: Q04DX002 (ip), vehicle: saline with Tween-80
[22] = endpoint: mean survival time, dose: 200.0 mg/kg/injection, schedule: Q04DX002 (ip), vehicle: saline with Tween-80
[23] = endpoint: mean survival time, dose: 400.0 mg/kg/injection, schedule: Q04DX002 (ip), vehicle: saline with Tween-80
[24] = endpoint: mean survival time, dose: 100.0 mg/kg/injection, schedule: Q04DX003 (ip), vehicle: saline with Tween-80
[25] = endpoint: mean survival time, dose: 200.0 mg/kg/injection, schedule: Q04DX003 (ip), vehicle: saline with Tween-80
[26] = endpoint: mean survival time, dose: 100.0 mg/kg/injection, schedule: Q01DX001 (ip), vehicle: saline with Tween-80

Measured: T/C

COc1ccc(C(=O)NNC(=O)c2ccc(OC)c(OC)c2)cc1OC
inactive: [1] 92 % of control | [2] 93 % of control | [3] 92 % of control | [4] 108 % of control | [5] 107 % of control

Oc1ccccc1C=Nc1ccccc1.Oc1ccccc1C=Nc1ccccc1.[Co]
inactive: endpoint: mean survival time, dose: 100.0 mg/kg/injection, schedule: Q04DX003 (ip), vehicle: other 92 % of control

CC(=O)OCC1OC(c2nn(C(C)=O)c(C(N)=O)c2O)C(OC(C)=O)C1OC(C)=O (stereo not given)
inactive: endpoint: median survival time, dose: 100.0 mg/kg/injection, schedule: Q01DX005 (ip), vehicle: saline 96 % of control
active: endpoint: median survival time, dose: 25.0 mg/kg/injection, schedule: Q01DX005 (ip), vehicle: saline 153 % of control | endpoint: median survival time, dose: 50.0 mg/kg/injection, schedule: Q01DX005 (ip), vehicle: saline 166 % of control

COc1ccc(OC)c(NC(=O)Nc2ccc(S(N)(=O)=O)cc2)c1
inactive: [6] 98 % of control | [7] 93 % of control | [8] 96 % of control

O=C(Nc1ccccc1)OCC1CC2C=CC1C2 (stereo not given)
inactive: endpoint: mean survival time, dose: 75.0 mg/kg/injection, schedule: Q01DX001 (ip), vehicle: saline with Tween-80 111 % of control | endpoint: mean survival time, dose: 150.0 mg/kg/injection, schedule: Q01DX001 (ip), vehicle: saline with Tween-80 94 % of control | endpoint: mean survival time, dose: 300.0 mg/kg/injection, schedule: Q01DX001 (ip), vehicle: saline with Tween-80 94 % of control

O=C(CNC(=O)Nc1cccc([N+](=O)[O-])c1)N/N=C/c1cccc(O)c1
inactive: [9] 92 % of control | [6] 95 % of control | [7] 95 % of control

CN1CCc2cc3c(cc2C1)OCO3
inactive: [10] 98 % of control | [11] 97 % of control | [12] 92 % of control

N#C[Se]CC[Se]C#N
inactive: endpoint: mean survival time, dose: 6.25 mg/kg/injection, schedule: Q01DX001 (ip), vehicle: saline with Tween-80 94 % of control | [13] 98 % of control | [14] 103 % of control

OCC1OC(O)C(F)C(O)C1O (stereo not given)
inactive: [15] 108 % of control | endpoint: mean survival time, dose: 100.0 mg/kg/injection, schedule: Q04DX003 (ip), vehicle: saline 104 % of control | endpoint: mean survival time, dose: 200.0 mg/kg/injection, schedule: Q04DX003 (ip), vehicle: saline 101 % of control | endpoint: mean survival time, dose: 400.0 mg/kg/injection, schedule: Q04DX003 (ip), vehicle: saline 101 % of control

CCCCCCCC(=O)[O][Hg][CH2]C1COC([CH2][Hg][O]C(=O)CCCCCCC)CO1 (stereo not given)
inactive: endpoint: mean survival time, dose: 6.25 mg/kg/injection, schedule: Q01DX009 (ip), vehicle: saline with Tween-80 106 % of control | endpoint: mean survival time, dose: 12.5 mg/kg/injection, schedule: Q01DX009 (ip), vehicle: saline with Tween-80 96 % of control

CC(=O)c1ccc(Oc2ccc(/C(C)=N\N=C(N)N)cc2)cc1
inactive: endpoint: mean survival time, dose: 25.0 mg/kg/injection, schedule: Q04DX003 (ip), vehicle: saline 100 % of control | [15] 108 % of control | [10] 100 % of control | [12] 112 % of control

Cc1cc(=O)c(Cl)cc(=O)[nH]1
inactive: [13] 95 % of control | [14] 95 % of control

ClCc1ccc(Cl)c(Cl)c1
inactive: [16] 102 % of control | [17] 102 % of control | [18] 102 % of control

CN(C)N=Nc1ccc(N=Nc2ccc(N(CCO)CCO)cc2)cc1
inactive: [11] 102 % of control | [19] 93 % of control | [20] 101 % of control

OC1C2CCC(C2)C1C(O)(C(F)(F)F)C(F)(F)F (stereo not given)
inactive: endpoint: mean survival time, dose: 3.13 mg/kg/injection, schedule: Q01DX009 (ip), vehicle: saline 104 % of control | endpoint: mean survival time, dose: 6.25 mg/kg/injection, schedule: Q01DX009 (ip), vehicle: saline 98 % of control | endpoint: mean survival time, dose: 6.25 mg/kg/injection, schedule: Q04DX003 (ip), vehicle: saline with Tween-80 98 % of control | endpoint: mean survival time, dose: 12.5 mg/kg/injection, schedule: Q01DX009 (ip), vehicle: saline 103 % of control | endpoint: mean survival time, dose: 12.5 mg/kg/injection, schedule: Q04DX003 (ip), vehicle: saline with Tween-80 98 % of control

CCNC(=O)C(=O)NCC
inactive: [21] 103 % of control | [22] 100 % of control | [23] 103 % of control

OCC(F)(F)C(F)(F)C(F)(F)F
inactive: endpoint: mean survival time, dose: 75.0 mg/kg/injection, schedule: Q01DX009 (ip), vehicle: saline 95 % of control | endpoint: mean survival time, dose: 150.0 mg/kg/injection, schedule: Q01DX009 (ip), vehicle: saline 95 % of control | endpoint: mean survival time, dose: 300.0 mg/kg/injection, schedule: Q01DX009 (ip), vehicle: saline 103 % of control | endpoint: mean survival time, dose: 600.0 mg/kg/injection, schedule: Q01DX009 (ip), vehicle: saline 86 % of control

C/C(=N\O)c1ccc2c3c(ccc([N+](=O)[O-])c13)CC2
inactive: [24] 98 % of control | [25] 98 % of control | endpoint: mean survival time, dose: 400.0 mg/kg/injection, schedule: Q04DX003 (ip), vehicle: saline with Tween-80 103 % of control

O=C(O)c1cc(-c2ccc(Cl)c(Cl)c2)nc2c(Cl)cc(Cl)cc12
inactive: [11] 100 % of control | [19] 100 % of control | [20] 97 % of control

O=C1Nc2ccccc2/C1=N/N=C/c1cc(Cl)cc(Cl)c1O
inactive: [26] 94 % of control | endpoint: mean survival time, dose: 400.0 mg/kg/injection, schedule: Q01DX001 (ip), vehicle: saline with Tween-80 95 % of control

CC(C)C(O)C(C)N (stereo not given)
inactive: endpoint: mean survival time, dose: 25.0 mg/kg/injection, schedule: Q01DX009 (ip), vehicle: saline with Tween-80 113 % of control | [9] 95 % of control | [6] 93 % of control

CC(=O)O/C=C1\CC2C3CC=C4CC(OC(C)=O)CCC4(C)C3CCC2(C)C1=O (stereo not given)
inactive: [14] 100 % of control | endpoint: mean survival time, dose: 50.0 mg/kg/injection, schedule: Q01DX001 (ip), vehicle: saline with Tween-80 95 % of control | [26] 95 % of control

CCC(C)(C)C1=C(N=[N+]=[N-])C(=O)C(C(C)(C)CC)=C(N=[N+]=[N-])C1=O
inactive: endpoint: mean survival time, dose: 100.0 mg/kg/injection, schedule: Q01DX001 (ip), vehicle: other 100 % of control | endpoint: mean survival time, dose: 200.0 mg/kg/injection, schedule: Q01DX001 (ip), vehicle: other 96 % of control | endpoint: mean survival time, dose: 400.0 mg/kg/injection, schedule: Q01DX001 (ip), vehicle: other 103 % of control

COc1cc(CCN2CC3C(C(=O)O)C4C=CC3(C2)O4)ccc1OCc1ccccc1 (stereo not given)
inactive: [21] 95 % of control | [22] 95 % of control | [23] 98 % of control

CC(=O)c1ccc(Br)c([N+](=O)[O-])c1
inactive: endpoint: mean survival time, dose: 100.0 mg/kg/injection, schedule: Q01DX009 (ip), vehicle: Klucel (hydroxypropylcellulose) (HPC) 102 % of control | [16] 96 % of control | endpoint: mean survival time, dose: 200.0 mg/kg/injection, schedule: Q01DX009 (ip), vehicle: Klucel (hydroxypropylcellulose) (HPC) 98 % of control | [17] 100 % of control | endpoint: mean survival time, dose: 400.0 mg/kg/injection, schedule: Q01DX009 (ip), vehicle: Klucel (hydroxypropylcellulose) (HPC) 102 % of control | [18] 105 % of control

COc1ccc(C(=O)CCCC(=O)O)cc1
inactive: [6] 90 % of control | [7] 101 % of control | [8] 97 % of control

CCOC(=O)c1c(C)nc(C)c(C(=O)OCC)c1-c1ccc(N(C)C)cc1
inactive: [24] 104 % of control | [25] 98 % of control

COc1ccc(/C=N/NC(=O)c2ccccc2)cc1OC
inactive: [1] 98 % of control | [2] 105 % of control | [3] 105 % of control | [4] 107 % of control | [5] 107 % of control

COc1ccc2ccccc2c1C(=O)CCCc1ccccc1
inactive: endpoint: mean survival time, dose: 12.5 mg/kg/injection, schedule: Q01DX009 (ip), vehicle: water 97 % of control | endpoint: mean survival time, dose: 25.0 mg/kg/injection, schedule: Q01DX009 (ip), vehicle: water 96 % of control | endpoint: mean survival time, dose: 50.0 mg/kg/injection, schedule: Q01DX009 (ip), vehicle: water 97 % of control | endpoint: mean survival time, dose: 100.0 mg/kg/injection, schedule: Q01DX009 (ip), vehicle: water 96 % of control | endpoint: mean survival time, dose: 200.0 mg/kg/injection, schedule: Q01DX009 (ip), vehicle: water 96 % of control
